# Results reported in PubChem BioAssay AID1204 (EPA DSSTox, 2008).
# Records with an inconclusive call do not appear. Active and inactive are the calls of the source.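 The calls were made as follows: active = relative estrogen receptor binding affinity above 1E-5, where estradiol scores 100; inconclusive = weak binder, under half inhibition at top dose, or affinity below 1E-5; inactive = no binding seen, affinity zero.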
# System: estrogen receptor (rat uterine cytosol)
# Assay: DSSTox (NCTRER) National Center for Toxicological Research Estrogen Receptor Binding Database;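 as to relative binding affinity: ratio of estradiol IC50 over compound IC50 times 100 so estradiol equals 100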
# Settings: rat uterine cytosol ER competitive binding, RBA; for relative binding affinity: active compounds read high
# From the text: Researchers within FDA's National Center for Toxicological Research (NCTR) generated a database of experimental estrogen receptor binding results for the express purpose of developing improved QSAR models to predict ER binding affinities.The NCTR ER database is a structurally diverse set of natural, synthetic, and environmental estrogens covering most known estrogenic classes and spanning a wide range of biological activity. It represents the largest published ER binding database of same-assay results generated in a single laboratory. […] Information on the percent purity and purchasing source for all chemicals are not included in the DSSTox SDF, but can be obtained from the original NCTR ER Source database and Main Citations listed below. The main citation (Fang et al., 2001) surveys the NCTR ER database from a chemical class based, structure-activity relationship (SAR) perspective. Qualitative SAR characteristics of the NCTR ER database are discussed and a set of general hierarchical rules for identifying potential estrogens are presented. The DSSTox NCTRER SDF augments the original NCTR ER database with chemical class and SAR information abstracted from Fang et al. (2001). The DSSTox SDF file supplements the measured ER relative binding affinity for each chemical (ER_RBA) with chemical class assignment to one of 6 major estrogenic classes further divided into 20 subclasses (ChemClass_ERB), along with a qualitative activity measure, ActivityCategory_ER_RBA. A brief narrative SAR rationale pertaining to ER RBA patterns observed by Fang et al. (2001) for each of the 20 subclasses within the database are provided in the field, ActivityCategory_Rationale_ChemClass_ERB. The original NCTR ER database, from which the expanded DSSTox NCTRER was formed, is contained within a larger Endocrine Disruptor Knowledge Base (EDKB) accessible from the FDA Source Website. That website provides online access to a relational database comprised of in vitro and in vivo experimental data for about 2000 natural and synthetic compounds, much of this extracted from the literature and representing testing in many laboratories. Data are included for biological assays that measure estrogenic and androgenic activity. Estrogenic endpoints include in vitro assays for estrogen receptor competitive binding affinity, cell proliferation, and reporter-gene assays, and in vivo assays for uterotrophic activity (i.e., uterine weight gain and vaginal cornification). The database also contains a bibliography of over 1200 citations, many of which include abstracts.
# Estrogen receptor relative binding affinity is determined using a competitive receptor binding assay as described in NCTRER Ref (Blair et al., 2000). Briefly, a chemical competes with radiolabeled E2 (i.e., estradiol) for binding to the ER in rat uterine cytosol and the concentration of chemical that causes 50% inhibition of E2 binding (i.e., IC50) is measured. The ER_RBA is calculated by dividing the IC50 of E2 (9X10-10M) by the IC50 of the competitor and multiplying by 100 (E2 RBA = 100). The validated assay tested 1nM E2 with concentrations of competitor ranging from 1nM to 1mM. The larger the ER_RBA values, the greater the binding affinity; ER_RBA > 100 means compound has greater binding affinity than natural ER ligand, E2. […] Activity Score is mapping of LOG_ER_RBA values (ER-RBA>1E-5), spanning activity range [MIN, MAX] onto Integer 20-100 Activity range, where 100 is highest potency and 20 is lowest active potency. If Activity Outcome is "active": Activity Score = 80 * INTEGER[(LOG_ER_RBA - MIN)/(MAX […] MIN)]. If Activity Outcome is "inconclusive" (i.e., slight binder): Activity Score = 5.
# [1] = ChemClass_ERB: Phytoestrogens Flavones
# [2] = ChemClass_ERB: Steroids With aromatic A ring
# [3] = ChemClass_ERB: Phytoestrogens Isoflavones
# [4] = ChemClass_ERB: Diphenylmethanes DDTs
# [5] = ChemClass_ERB: Diphenylmethanes Benzophenones
# [6] = ChemClass_ERB: Phenols Alkyloxy
# [7] = ChemClass_ERB: Steroids Without aromatic A ring
# [8] = ChemClass_ERB: Phytoestrogens Flavanones
smiles,measurement,setting,value
O=c1cc(-c2ccccc2)oc2ccccc12,outcome,[1],inactive
c1ccc2c(c1)ccc1c3ccccc3ccc21,outcome,ChemClass_ERB: Misc,inactive
Oc1ccccc1Cc1ccccc1O,outcome,ChemClass_ERB: Diphenylmethanes Diphenolalkanes,inactive
C#C[C@]1(O)CC[C@H]2[C@@H]3CCc4cc(O)ccc4[C@H]3[C@@H](OC)C[C@@]21C,relative binding affinity,[2],13.8%
ClC1C(Cl)C(Cl)C(Cl)C(Cl)C1Cl (stereo not given),outcome,ChemClass_ERB: Misc,inactive
C=CC(C)(O)CC/C=C(\C)CCC=C(C)C (stereo not given),outcome,ChemClass_ERB: Misc,inactive
O=c1c(-c2ccc(O)cc2)coc2cc(O)c(O)cc12,outcome,[3],inactive
O=C(c1ccc(O)cc1)c1ccc(O)cc1,relative binding affinity,ChemClass_ERB: Diphenylmethanes Benzophenone,0.0035%
Clc1ccc(C(c2ccccc2Cl)C(Cl)(Cl)Cl)cc1 (stereo not given),relative binding affinity,[4],0.00141%
COc1ccc(C(=C(Cl)Cl)c2ccc(O)cc2)cc1,relative binding affinity,[4],0.234%
Clc1ccc(-c2ccccc2Cl)cc1,relative binding affinity,ChemClass_ERB: Biphenyls PCBs,0.00024%
O=S1OCC2C(CO1)C1(Cl)C(Cl)=C(Cl)C2(Cl)C1(Cl)Cl (stereo not given),outcome,ChemClass_ERB: Misc,inactive
C(/C=C/c1ccccc1)=C\c1ccccc1,outcome,ChemClass_ERB: Misc,inactive
COc1ccc(C(=O)c2ccccc2)c(O)c1,outcome,[5],inactive
C[C@]12CC[C@@H]3c4ccc(O)cc4CC[C@H]3[C@@H]1CC[C@H]2O,relative binding affinity,[2],3.09%
Oc1ccc(/C=C/c2ccc(O)cc2)cc1,relative binding affinity,ChemClass_ERB: DES Derivatives,0.282%
C=CCc1ccc(O)c(OC)c1,outcome,[6],inactive
CCCCc1ccccc1,outcome,ChemClass_ERB: Misc,inactive
C[C@]12CC[C@H](O)C[C@@H]1CC[C@@H]1[C@@H]2CC[C@]2(C)[C@@H](O)CC[C@@H]12,relative binding affinity,[7],0.12%
Oc1ccccc1Cl,outcome,ChemClass_ERB: Phenols Alkyl,inactive
Oc1ccc(CCc2ccccc2)cc1,relative binding affinity,ChemClass_ERB: DES Hexestrol derivatives,0.00204%
C[C@]12CC[C@@H]3c4ccc(O)cc4[C@@H](O)C[C@H]3[C@@H]1CC[C@@H]2O,relative binding affinity,[2],0.708%
c1ccc2c(c1)Cc1cc3ccccc3cc1-2,outcome,ChemClass_ERB: Misc,inactive
O=C(c1ccccc1O)c1ccccc1O,outcome,[5],inactive
CCCCCCCOc1ccc(O)cc1,relative binding affinity,[6],0.00131%
O=C1CC(c2ccc(O)cc2)Oc2ccccc21 (stereo not given),relative binding affinity,[8],0.00223%
C[C@@H]1O[C@@H](O[C@H]2[C@H](Oc3cc(O)c4c(c3)O[C@H](c3ccc(O)cc3)CC4=O)O[C@H](CO)[C@@H](O)[C@@H]2O)[C@H](O)[C@H](O)[C@H]1O,outcome,[8],inactive
ClC1=C(Cl)[C@]2(Cl)[C@@H]3[C@@H]4C[C@@H]([C@H]5O[C@@H]45)[C@@H]3[C@@]1(Cl)C2(Cl)Cl,outcome,ChemClass_ERB: Misc,inactive
CCCCOC(=O)c1ccc(N)cc1,outcome,ChemClass_ERB: Misc,inactive
COc1ccc(C(=O)c2ccccc2O)c(O)c1,outcome,[5],inactive
O=c1cc(-c2ccccc2)oc2cc(O)c(O)c(O)c12,relative binding affinity,[1],0.0009%
C[C@H]1CCC[C@@H](O)CCCCCc2cc(O)cc(O)c2C(=O)O1,relative binding affinity,ChemClass_ERB: Phytoestrogens Mycoestrogens,0.646%
O=P(Oc1ccccc1)(Oc1ccccc1)Oc1ccccc1,outcome,ChemClass_ERB: Misc,inactive
COc1ccc(-c2coc3cc(O)ccc3c2=O)cc1,relative binding affinity,[3],0.00104%
C[C@]12CCC(=O)C=C1CC[C@@H]1[C@@H]2[C@@H](O)C[C@]2(C=O)[C@@H](C(=O)CO)CC[C@@H]12,outcome,[7],inactive
